Laboratory results published in patent publication EP0548798A1, “Antiviral agent” (SANWA KAGAKU KENKYUSHO CO., LTD., priority 1991, dated 1993).
Read-outs that look alike come from different tables or passages of the source.

Columns and labels:
[1] = system: GMK cells; test: Cytotoxicity observed microscopically in GMK cells (Test Example 2); assay type: cell-based, green monkey; parameters: key: -: no cytotoxicity; ±: slight cytotoxicity; +: cytotoxicity with observable antiviral effect; conditions: in parentheses
Experimental: (§1) Confluent GMK cells (derived from green monkey kidney) in 96-well plates were infected with HSV-1 (Miyama strain) in the presence of various concentrations of test compounds. After incubation, virus-induced cytopathic effect (CPE), inhibitory effect of CPE by the test compound and cytotoxicity were microscopically observed. The virus titer (TCID₅₀) was determined from CPE of virus infected culture. Ancivirus effects of test compounds were calculated from TCID₅₀ values of test compound treated and control cultures and represented by ΔTCID₅₀(log₁₀). Test compounds were dissolved in MEM medium, ethanol or DMSO to 10 mg/ml, and diluted with MEM medium supplemented with 0.5% fetal bovine serum.
In Table 4, parentheses indicate the cytotoxicity of these compounds. (-), (±) and (+) indicate no cytotoxicity, slight cytotoxicity and cytotoxicity with observable antiviral effect, respectively.

[2] = system: herpes simplex virus type 1 (Miyama strain); test: Antiviral activity against HSV-1 in vitro, inhibition of virus-induced CPE in GMK cells (Test Example 2); assay type: cell-based, HSV-1 (Miyama strain); conditions: 0.5% fetal bovine serum
Experimental: as §1

[3] = system: herpes simplex virus type 1 (Miyama strain); test: Antiviral activity against HSV-1 in vitro, inhibition of virus-induced CPE in GMK cells (Test Example 1); assay type: cell-based, HSV-1 (Miyama strain)
Experimental: as §1, with “After incubation, virus-induced cytopathic effect (CPE), inhibitory effect of CPE by the test compound and cytotoxicity were microscopically observed.” left out, “Antivirus” for “Ancivirus”, “1%” for “0.5%”, “bovineserum.” for “bovine serum.”

[4] = system: GMK cells; test: Cytotoxicity observed microscopically in GMK cells (Test Example 1); assay type: cell-based, green monkey
Experimental: as §1, with “After incubation, virus-induced cytopathic effect (CPE), inhibitory effect of CPE by the test compound and cytotoxicity were microscopically observed.” left out, “Antivirus” for “Ancivirus”, “1%” for “0.5%”, “bovineserum.” for “bovine serum.”
In Table 1, parentheses indicate the cytotoxicity of these compounds. (-) and (±) indicate no cytotoxicity and slight cytotoxicity, respectively.

[5] = system: HSV-1 (Miyama strain); test: Anti HSV-1 activity in vivo, intraperitoneally infected mice; parameters: species or system Male BALB/c mice; conditions: 322 PFU (10LD₅₀) HSV-1
Experimental: Male BALB/c mice (5 weeks of age) were intraperitoneally infected with 322 PFU (plaque forming unit, 10LD₅₀) of HSV-1 (Miyama strain). Twenty one days later, survival ratio and mean survival days were evaluated. Test compounds were dispersed in 5% arabic gum/physiological saline, and intraperitoneally administered at 10 mg and 20 mg/kg. Treatment began just after virus inoculation and continued for 5 days.

[6] = system: HIV; test: Inhibition of HIV-induced cytopathogenicity in MT-4 cells; assay type: cell-based; conditions: Human immunodeficiency virus 1; MT-4 cells; minimum inhibitory concentration; read-out: Anti-HIV Activity (MIC, µg/ml)
Experimental: MT-4 cells (lymphoma derived from human T cell leukemia) in 96-well plate were infected with […] in the presence of various concentrations of test compounds. After incubation, inhibitory effect of HIV-induced CPE by the test compounds and cytotoxicity were microscopically observed. […]
Further, since the compounds of the present invention have a chemical structure different from the conventional antiviral substances, it is useful for the prevention or treatment of the infectious diseases caused by viruses resistant to the conventional antiviral substances.

[7] = system: MT-4 cells; test: Minimum cytotoxic concentration in MT-4 cells; assay type: cell-based, human; conditions: MT-4 cells; in parentheses
Experimental: MT-4 cells (lymphoma derived from human T cell leukemia) in 96-well plate were infected with […] in the presence of various concentrations of test compounds. After incubation, inhibitory effect of HIV-induced CPE by the test compounds and cytotoxicity were microscopically observed. […] TABLE 6 In Table 6, parentheses indicate the minimum cytotoxic concentration of test compounds.

[8] = Human alphaherpesvirus 1, 10 µg/ml, GMK cells, 1% fetal bovine serum, read-out: Antiviral Activity (ΔTCID₅₀(log₁₀))
[9] = 10 µg/ml, GMK cells, in parentheses
[10] = 10 µg/ml, GMK cells, 1% fetal bovine serum
[11] = 10 mg/kg intraperitoneally for 5 days
[12] = 20 mg/kg intraperitoneally for 5 days

Row | Molecule | cytotoxicity ([1]; 10 µg/ml) | Antiviral Activity (ΔTCID₅₀(log₁₀)) ([2]; 10 µg/ml) [log₁₀] | log reduction at 10 µg/mL [3, 8] | cytotoxicity [4, 9] | other results
1 | 2-[4-(2-Trifluoromethylphenyl)-1-piperazinyl]-7-(2-deoxy-α-and β-D-ribofuranosyl)hypoxanthine and 2-[4-(2-Trifluromethylphenyl)-1-piperazinyl]-9-(2-deoxy-α- and β-D-ribofuranosyl)hypoxanthine [Compound of Example 21] | - | 1.00 |  |  | 
2 | O=C(CN1CCCC1=O)N1CCN(c2ccccc2Cl)CC1 [Compound of Example 1, 1-(2-Chlorophenyl)-4-(2-pyrrolidon-1-yl)acetylpiperazine] |  |  | 0.17 | - | 
3 | CC(=O)Oc1ccccc1C(=O)N1CCN(c2ccccc2Cl)CC1 [Compound of Example 2, 1-(2-Acetoxybenzoyl)-4-(2-chlorophenyl)piperazine] |  |  | 0.5 | - | 
4 | O=C(c1ccccc1O)N1CCN(c2ccccc2Cl)CC1 [Compound of Example 3, 1-(2-Chlorophenyl)-4-(2-hydroxybenzoyl)piperazine] |  |  | 0.83 | - | 
5 | O=C(CC12CCCN1CCC2)N1CCN(c2ccccc2Cl)CC1 [Compound of Example 4, 1-(1-Azabicyclo[3.3.0]octan-5-yl)acetyl-4-(2-chlorophenyl)piperazine] |  |  |  |  | Antiviral Activity (ΔTCID₅₀(log₁₀)) [3, 10]: 0.66 log₁₀
6 | CCn1cc(C(=O)O)c(=O)c2cc(F)c(N3CCN(c4ccccc4Cl)CC3)cc21 [Compound of Example 5, 7-[4-(2-Chlorophenyl)-1-piperazinyl]-1-ethyl-6-fluoro-1,4-dihydro-4-oxoquinoline-3-carboxylic acid] |  |  | > 2.83 | ± | log reduction at 5 µg/mL ([3]; Human alphaherpesvirus 1, 5 µg/ml, GMK cells, 1% fetal bovine serum, read-out: Antiviral Activity (ΔTCID₅₀(log₁₀))): > 2.83; cytotoxicity ([4]; 5 µg/ml, GMK cells, in parentheses): -; Mean Survival Days [5, 11]: 16.8 ± 1.6 days; Survival Ratio at 21 days (%) [5, 11]: 40%; Mean Survival Days [5, 12]: 18.7 ± 1.2 days; Survival Ratio at 21 days (%) [5, 12]: 70%
7 | CS(=O)(=O)N1CCN(c2ccccc2Cl)CC1 [Compound of Example 6, 1-(2-Chlorophenyl)-4-methylsulfonylpiperazine] |  |  | 0.17 | - | 
8 | CCCCCCCCCCCCCCCCCC(=O)N1CCN(c2ccccc2Cl)CC1 [Compound of Example 7, 1-(2-Chlorophenyl)-4-octadecanoylpiperazine] |  |  | 0.17 | - | 
9 | C[C@H](CCC(=O)N1CCN(c2ccccc2Cl)CC1)[C@H]1CC[C@H]2[C@@H]3CC[C@@H]4CCCC[C@]4(C)[C@H]3CC[C@]12C [Compound of Example 10, 1-(2-Chlorophenyl)-4-(5β-cholan-24-oyl)piperazine] |  |  | 0.17 |  | cytotoxicity ([4]; green monkey, 10 µg/ml): -
10 | NS(=O)(=O)c1ccc(N2CCN(c3ccccc3Cl)CC2)cc1 [Compound of Example 11, 1-(4-Aminosulfonylphenyl)-4-(2-chlorophenyl)piperazine] |  |  | 1.5 | - | 
11 | CCN1CCN(c2ccccc2Cl)CC1 [Compound of Example 12, 1-(2-Chlorophenyl)-4-ethylpiperazine] |  |  |  | - | log reduction at 10 µg/mL ([3]; Human alphaherpesvirus 1, GMK, read-out: Antiviral Activity (ΔTCID₅₀(log₁₀))): 0.33
12 | CC(=O)N1CCN(c2ccccc2Cl)CC1 [Compound of Example 13, 1-Acetyl-4-(2-chlorophenyl)piperazine] |  |  | 0 | - | 
13 | CC1(C)[C@@H](O)CC[C@]2(C)[C@H]3CC=C4[C@@H]5C[C@@](C)(C(=O)N6CCN(c7ccccc7Cl)CC6)CC[C@]5(C)CC[C@@]4(C)[C@]3(C)CC[C@@H]12 [Compound of Example 15, 1-(3β-Hydroxy-18β-olean-12-en-30-oyl)-4-(2-chlorophenyl)piperazine] |  |  |  |  | Antiviral Activity (ΔTCID₅₀(log₁₀)) [3, 10]: > 2.00 log₁₀
14 | CCCCCCCC(=O)N1CCN(c2ccccc2C(F)(F)F)CC1 [Compound of Example 16, 1-(2-Trifluoromethylphenyl)-4-octanoylpiperazine] | + | > 3.00 |  |  | cytotoxicity ([1]; 5 µg/ml): -; MIC [6]: > 63 µg/mL; minimum cytotoxic concentration [7]: 125 µg/mL; Antiviral Activity (ΔTCID₅₀(log₁₀)) ([2]; 5 µg/ml): 2.16 log₁₀
15 | CCCCC/C=C\C/C=C\CCCCCCCC(=O)N1CCN(c2ccccc2C(F)(F)F)CC1 [Compound of Example 17, 1-(2-Trifluoromethylphenyl)-4-[(Z,Z)-9,12-octadecadienoyl]piperazine] | - | 1.56 |  |  | 
16 | CC1(C)[C@@H](O)CC[C@]2(C)[C@H]3CC=C4[C@@H]5C[C@@](C)(C(=O)N6CCN(c7ccccc7C(F)(F)F)CC6)CC[C@]5(C)CC[C@@]4(C)[C@]3(C)CC[C@@H]12 [Compound of Example 18, 4-(2-Trifluoromethylphenyl)-1-(3β-hydroxy-18β-olean-12-en-30-oyl)piperazine] | - | 1.67 |  |  | 
17 | O=c1[nH]c(N2CCN(c3ccccc3C(F)(F)F)CC2)nc2nc[nH]c12 [Compound of Example 20, 2-[4-(2-Trifluoromethylphenyl)-1-piperazinyl]hypoxanthine] | ± | > 2.83 |  |  | cytotoxicity ([1]; 5 µg/ml): -; Antiviral Activity (ΔTCID₅₀(log₁₀)) ([2]; 5 µg/ml): 1.66 log₁₀
18 | COc1ccc2[nH]c(C(=O)N3CCN(c4ccccc4C(F)(F)F)CC3)cc2c1 [Compound of Example 22, 1-(5-Methoxyindolyl-2-carbonyl)-4-(2-trifluoromethyl)piperazine] | - | 0.64 |  |  | 
19 | CCn1cc(C(=O)O)c(=O)c2cc(F)c(N3CCN(c4ccccc4C(F)(F)F)CC3)cc21 [Compound of Example 23, 1-Ethyl-6-fluoro-7-[4-(2-trifluoromethylphenyl)-1-piperazinyl]-1,4-dihydro-4-oxoquinoline-3-carboxylic acid] | + | > 3.17 |  |  | cytotoxicity ([1]; 5 µg/ml): ±; Antiviral Activity (ΔTCID₅₀(log₁₀)) ([2]; 5 µg/ml): > 3.17 log₁₀
20 | Cc1cc(O)c2c(=O)c(C)c(-c3ccc(OC(=O)CN4CCN(c5ccccc5C(F)(F)F)CC4)cc3)oc2c1 [Compound of Example 24, 2-[4-(4-(2-Trifluoromethylphenyl)-1-piperazinylacetoxy)phenyl]-5-hydroxy-3,7-dimethyl-4H-1-benzopyran-4-one] | - | 0.33 |  |  | 
21 | CC[C@@]12C=C(C(=O)NCCN3CCN(c4ccccc4OC)CC3)n3c4c(c5ccccc53)CCN(CCC1)[C@H]42 [Compound of Example 25, N-[4-(2-Methoxyphenyl)piperazine-1-yl]ethyl-(3α,16α)-eburunamenine-14-caboxamide] | - | 2.27 |  |  | cytotoxicity ([1]; 5 µg/ml): -; Antiviral Activity (ΔTCID₅₀(log₁₀)) ([2]; 5 µg/ml): 0.67 log₁₀
22 | CC[C@@]12C=C(C(=O)NCCN3CCN(c4ccccc4Cl)CC3)n3c4c(c5ccccc53)CCN(CCC1)[C@H]42 [Compound of Example 26, N-[4-(2-Chlorophenyl)piperazine-1-yl]ethyl-(3α,16α)-eburunamenine-14-caboxamide] | + | > 3.17 |  |  | cytotoxicity ([1]; 5 µg/ml): -; Antiviral Activity (ΔTCID₅₀(log₁₀)) ([2]; 5 µg/ml): 2.00 log₁₀
